# Results as given in patent US20180028480A1, “METHODS OF REDUCING OR PREVENTING OXIDATIVE MODIFICATION OF MEMBRANE POLYUNSATURATED FATTY ACIDS” (Amarin Pharmaceuticals Ireland Limited, priority 2015, published 2018).
# Tests used:
# sdLDL = assay: Copper-induced sdLDL oxidation (Example 7); assay type: biochemical, human; settings: 10.0 μM; copper-induced oxidation 1 hour
# Method: An experiment to study the antioxidant effect of EPA in small dense LDL (“sdLDL”) was performed. sdLDL was isolated from human plasma by isopycnic centrifugation, separated into test samples of 200 μg/mL, and incubated at 37° C. for 30 min in the absence (vehicle) or presence of EPA, fenofibrate, niacin, or gemfibrozil, each at 10.0 μM. All samples, with the exception of non-oxidized sdLDL controls, were subjected to copper-induced oxidation for 1 hour. Human umbilical vein endothelial cells (HUVECs) were incubated with the various sdLDL samples, stimulated with calcium, and monitored for nitric oxide (NO) and peroxynitrite (ONOO^−) release using nanosensor technology.
# [1] = LOOH formation in glucose-treated model membranes, EPA versus EA and ETE (Example 5); assay type: biochemical; settings: FIG. 8
# Method: An experiment was conducted to compare the ability of EPA to prevent lipid hydroperoxide formation in model membranes treated with glucose to two other 20-carbon fatty acids: eicosanoic acid (“EA,” also referred to as arachidic acid, C20:0) and eicosatrienoic acid (“ETE,” C20:3, n-3). All MLV samples were subjected to time-dependent autoxidation by incubating at 37° C. in an uncovered, shaking water bath. This method allows lipid peroxidation to occur gradually without requiring the use of exogenous initiators. Small aliquots (5-100 μL) of each sample were removed, immediately following MLV preparation (0 hr) and after exposing samples to oxidative conditions for 72 or 96 hr, and combined with 1.0 mL of activated CHOD-iodide color reagent. Aliquot volume was reduced with each successive time point to ensure that spectrophotometric readings were within the optimal adsorption range. Test samples were covered and incubated in darkness at room temperature for at least 4 hr. Sample absorbances were then measured against a CHOD blank at 365 nm using a Beckman DU-640 spectrophotometer. The CHOD colorimetric assay is based on the oxidation of iodide (I^−) by lipid hydroperoxide (LOOH) to form triiodide (I3^−), the quantity of which is directly proportional to the amount of LOOH present in the lipid sample. The molar absorptivity (ε) of I3^− is 2.46×10^4 M^−1 cm^−1 at 365 nm.
# [2] = X-ray diffraction of cholesterol-enriched POPC membranes without oxidative conditions (Example 8); settings: 5 mol %, 50 mol % cholesterol, 15° C., 20° C.
# Method: Values are mean±S.D. (N=3).
# FIGS. 18A-18C show representative x-ray diffraction patterns collected from cholesterol-enriched model membranes treated with vehicle (control), eicosapentaenoic acid (EPA), or docosahexaenoic acid (DHA) and examined at 15° C., 20° C., and 30° C. Membranes were reconstituted from POPC and cholesterol at 50 mol % cholesterol and treated with each of the various agents at 5 mol % (to match treatments used in corresponding lipid dynamics experiments). Each sample was maintained at 74% relative humidity by exposing the samples to a saturated solution of L-(+) tartaric acid. […] DHA, but not EPA or vehicle, induced the formation of cholesterol domains, which are indicated by a distinct set of diffraction peaks (shaded peaks) having a characteristic d-space value of 34 Å and shown to be stable over a broad range of temperatures.
# (§1) Multilamellar vesicles (MLVs) were prepared as binary mixtures of POPC and cholesterol at 50 mol %. MLVs with DLPC and cholesterol at cholesterol-to-phospholipid (C/P) mole ratios of 0.1:1 to 1.1:1 were also prepared in a similar manner. Component lipids (in chloroform) were transferred to borosilicate culture tubes and combined with vehicle (ethanol) or an equal volume of EPA, DHA, fenofibrate, niacin or gemfibrozil stock solution(s) and adjusted to achieve a drug-to-phospholipid (D/P) mole ratio of 1:30. Membranes reconstituted from POPC and cholesterol (at 50 mol % cholesterol) were treated with each of the various agents at 5 mol %. Samples were then shell-dried under nitrogen gas and placed under vacuum for 3 hours to remove residual solvent.
# Membrane samples were oriented for x-ray diffraction analysis as described in Mason, et al., J. Biol. Chem., vol. 281, pages 9337-45 (2006). Briefly, 100 μL aliquots of each MLV preparation (containing 250 μg of phospholipid) were transferred to Lucite sedimentation cells fitted with a removable aluminum foil substrate designed to collect MLVs into a single membrane pellet upon centrifugation. […]
# [3] = X-ray diffraction of glucose-treated DLPC/cholesterol membranes under oxidative conditions (Example 8); settings: 10.0 μM; 0.6 C/P; glucose-induced lipid peroxidation 72 hours (FIG. 14)
# Method: Values are reported as mean±S.D. (N=3).
# […] Membranes were reconstituted from DLPC and cholesterol at a C/P mole ratio of 0.6:1 and treated with the various agents to achieve a total drug-to-phospholipid mole ratio of 1:30.
# as §1
# After drying, each sample was resuspended in glucose-free or glucose-containing saline buffer to yield a final phospholipid concentration of 2.5 mg/mL. Lipid suspensions were then vortexed for 3 minutes at ambient temperature to form MLVs.
# Membrane samples were oriented for x-ray diffraction analysis as described in Mason, et al., J. Biol. Chem., vol. 281, pages 9337-45 (2006). Briefly, 100 μL aliquots of each MLV preparation (containing 250 μg of phospholipid) were transferred to Lucite sedimentation cells fitted with a removable aluminum foil substrate designed to collect MLVs into a single membrane pellet upon centrifugation. Samples were then loaded into a Sorvall AH-629 swinging bucket ultracentrifuge rotor (DuPont Corp., Wilmington, Del.) and centrifuged at 35,000 g, 5° C., for 1.5 hours.
# Following membrane orientation, sample supernatants were aspirated and aluminum foil substrates mounted onto curved glass slides. The membrane samples were then placed in hermetically sealed containers in which temperature and relative humidity were controlled during x-ray diffraction analysis. Data reported in this study were collected at 20° C. and 74% relative humidity.
# This technique allows for precise measurement of the unit cell periodicity, or d-space, of the membrane lipid bilayer, which is the distance from the center of one lipid bilayer to the next, including surface hydration.
# The presence of cholesterol domains in a given membrane sample results in the production of distinct Bragg (diffraction) peaks that have singular periodicity values of 34 Å and 17 Å. These peaks are typically referred to as first- and second-order cholesterol domain peaks.
# [4] = tested on: Human umbilical vein endothelial cells (HUVECs); assay: Nitric oxide release from HUVECs incubated with pretreated oxidized sdLDL (Example 7); assay type: cell-based; settings: oxidized sdLDL pretreated at 10.0 μM
# Method: All samples, with the exception of non-oxidized sdLDL controls, were subjected to copper-induced oxidation for 1 hour. Human umbilical vein endothelial cells (HUVECs) were incubated with the various sdLDL samples, stimulated with calcium, and monitored for nitric oxide (NO) and peroxynitrite (ONOO^-) release using nanosensor technology.
smiles,measurement,setting,value
"CC/C=C\C/C=C\C/C=C\C/C=C\C/C=C\CCCC(=O)O [EPA, cis-5,8,11,14,17-Eicosapentaenoic acid]",reduction of sdLDL oxidation compared to vehicle treatment,sdLDL,> 90%
same,"LOOH formation compared to vehicle, glucose, glucose and EA, glucose and ETE",[1],significantly less LOOH formation
same,membrane width (d-space) compared to DHA or vehicle,[2]; 30° C. (FIG. 17),increased the width (d-space)
same,membrane cholesterol domain formation,[2]; 30° C. (FIG. 18),did not induce cholesterol domain formation
same,effect on d-space values,[3],significantly inhibited glucose-induced reductions and peroxidation-induced reductions in d-space values
same,increase of NO release as compared to non-oxidized sdLDL treatment,[4],23%
same,increase of NO release as compared to oxidized LDL treatment,[4],53%
